This is an account of results in patent US20230210832A1, “METHODS FOR TREATING ALZHEIMER'S DISEASE” (priority 2020, published 2023).

Data set [1] has as its system Tg2576 AD model mice and WT (B6/SJL) littermates. Description: Contextual fear conditioning. The settings on record: 1-month treatment, mean±standard deviation. The format is in vivo, mouse. The method, then:
Contextual Fear Conditioning: The apparatus consisted of a transparent chamber inside an enclosure with an opening in the ceiling to allow video recordings. The chamber consisted of a steel grid floor connected to a shock generator scrambler. The test encompassed two sessions: conditioning and a context test. On the conditioning day, the mice were individually placed in the chamber and allowed to explore freely for 5 minutes during which, at the 180th second, they received a foot shock of 0.50-0.80 mA for 3 seconds through the bars of the floor. 24 hours after conditioning, the mice were individually placed back in the chamber for 4 minutes, this time with no noxious stimuli. The mice were monitored for movement and freezing behaviour was recorded using computer software (Limelight, ActiMetrics, Wilmette, Ill., USA). Exclusion criteria were set for freezing events less than 2 seconds. This test was used to determine associative working memory. We explored the animal's ability to associate an environment with a noxious event that it experienced there. […] Freezing is a species-specific response to fear, which is defined as “the absence of movement except for respiration.” This may last for seconds to minutes depending on the strength of the aversive stimulus and whether the subject is able to recall the shock.

The conditions of data set [2]: mice, 26 weeks of once daily oral gavage administration; cited from earlier work.
The nature of data set [3]: physchem. The note with it: 100% DMSO, organic solvent or mixture.
The subject of data set [4] is Tg2576 AD model mice and WT (B6/SJL) littermates. Description: Spontaneous alternation (Y-maze). The format is in vivo, mouse. The settings on record: drug-treated Tg2576 mice, 1-month treatment; mean±standard deviation. The method, then: Spontaneous alternation (Y-maze): The test for novelty exploration using spatial and working memory was conducted using a symmetrical Y-maze with a grey steel bottom plate and grey Perspex® walls (Stoelting Co, Wood Dale, Ill.). Each arm of the Y-maze was 35 cm long, 5 cm wide, and 10 cm high, and the wall at the end of each arm was identified by a different colour: white, blue or red. The spatial acquisition phase comprised a one-day trial with the mice tracked while moving freely through the three arms of the Y maze during an 8-minute session. The movements were tracked by a computer tracking system (ANY-maze, Stoelting). The performance was gauged by the percentage of alternations that was calculated as the total number of alternations×100/(total number of arm entries−2). Alternation was defined as successive entries into the three arms on overlapping triplet sets. A high percentage of alternation was indicative of sustained cognition, as the animals must remember which arm was entered last to avoid re-entering it.

Data set [5] deals with Human brain endothelial cells (HBEC-5i). Nature of the data set: Western blot of HBEC-5i cell lysates after peptide treatment. The format is cell-based. The note with it: 24 hrs, Aβ peptides 10 μM, Ang-2 200 ng/ml, VEGFA-165 100 ng/ml, vs PBS-treated cells. Background: A western blot detects proteins with antibodies after separation by electrophoresis.
Protocol: Human brain endothelial cells, HBEC-5i (ATCC® CRL-3245™) were cultured on 0.1% gelatin coated tissue culture plates in DMEM-F12 media (Gibco; cat. #10565-018) supplemented by 10% heat-inactivated fetal bovine serum (FBS) (Gibco; cat. #A31607-01) and 40 μg/ml endothelial growth supplement (Sigma-Aldrich; cat. #E2759). Cells were grown until they reached 70% confluency and then used for experiments.
Cell culture: Human brain endothelial cells were grown in 10 cm tissue culture plates. […] After the treatment, the medium was removed, and cells were washed with PBS and then lysed with RIPA buffer that contained protease and phosphatase inhibitors. These cells were then used to analyze different proteins of interest.
Immunoblotting analysis and co-immunoprecipitation: For western blot analysis, the fractional homogenate samples were prepared with Dithiothreitol (DTT) in the sample buffer (100 mM Tris-Cl (pH 6.8), 4% (w/v) SDS, 0.2% (w/v) bromophenol blue, 20% (v/v) glycerol and 200 mM DTT). Homogenates were electrophoresed and immunoblotted with indicated antibodies. […] The proteins in the eluate were resolved on the acrylamide gel according to standard practices. […] The signal intensities were imaged by using the Odyssey infrared image system (LICOR), and relative levels of immunoreactivity were analyzed by the Image Studio Lite software.

≈ marks a conversion by molar mass, not a printed value.

With `CNC(=O)c1ccccc1Sc1ccc2c(/C=C/c3ccccn3)n[nH]c2c1` [Axitinib], the freezing percentage in data set [1] (drug-treated Tg2576 mice) was found to be 14.4±7.3%; in data set [1] (drug-treated WT (B6/SJL) mice), 17.74±14.4%. Moreover, in data set [2], the “no-observed-adverse-effect-levels (NOAELs)” value was under 10 mg/kg/day. For the same molecule, the solubility in data set [3] is 40 mg/mL (≈ 103 mM).
In data set [4], `CCN(CC)CCNC(=O)c1c(C)[nH]c(/C=C2\C(=O)Nc3ccc(F)cc32)c1C` [Sunitinib] registered a percentage of alternation of 49.3±12.1%. Besides, the results for the freezing percentage in data set [1] (drug-treated Tg2576 mice) and in data set [1] (drug-treated WT (B6/SJL) mice) were 10.9±5.8% and 25.4±19.4%, respectively. Also, in data set [3], the solubility was found to be 30 mg/mL (≈ 75.3 mM).
As to “Aβ1-42 peptide: Aβ1-42 peptide (NovoPrep synthetic peptide), predominantly found in plaques”, the “expression of VEGFR2” value in data set [5] is reported as “did not exert a similar effect”.

B1: Ang-2 peptide: human Ang-2 peptide (abcam; ab99482), Tie-2 receptor ligand (protein, UniProt O15123 19-496, looked up)
Angiopoietin-2: YNNFRKSMDSIGKKQYQVQHGSCSYTFLLPEMDNCRSSSSPYVSNAVQRDAPLEYDDSVQRLQVLENIMENNTQWLMKLENYIQDNMKKEMVEIQQNAVQNQTAVMIEIGTNLLNQTAEQTRKLTDVEAQVLNQTTRLELQLLEHSLSTNKLEKQILDQTSEINKLQDKNSFLEKKVLAMEDKHIIQLQSIKEEKDQLQVLVSKQNSIIEELEKKIVTATVNNSVLQKQQHDLMETVNNLLTMMSTSNSAKDPTVAKEEQISFRDCAEVFKSGHTTNGIYTLTFPNSTEEIKAYCDMEAGGGGWTIIQRREDGSVDFQRTWKEYKVGFGNPSGEYWLGNEFVSQLTNQQRYVLKIHLKDWEGNEAYSLYEHFYLSSEELNYRIHLKGLTGTAGKISSISQPGNDFSTKDGDNDKCICKCSQMLTGGWWFDACGPSNLNGMYYPQRQNTNKFNGIKWYYWKGSGYSLKATTMMIRPADF
As for B1, in data set [5], the “expression of VEGFR2” value is recorded as “slight increase”.

The term solubility denotes how much of the substance goes into solution per volume.
